Test: mean ionic activity coefficient (dimensionless); mn = molality of the nth substance listed, in mol/kg
Details: 298.15 K, 100 kPa, Liquid, Potentiometry

[Cl-].[Cs+] [cesium chloride] + O
Details | mean ionic activity coefficient
m1 = 0.0085 | 0.905
m1 = 0.01 | 0.898
m1 = 0.028 | 0.843
m1 = 0.0297 | 0.84
m1 = 0.0574 | 0.794
m1 = 0.0706 | 0.778
m1 = 0.0969 | 0.753
m1 = 0.1497 | 0.715
m1 = 0.1937 | 0.692
m1 = 0.2985 | 0.652
m1 = 0.3873 | 0.628
m1 = 0.5981 | 0.588
m1 = 0.6802 | 0.577
m1 = 0.9033 | 0.552
m1 = 1.073 | 0.538
m1 = 1.504 | 0.513
m1 = 1.56 | 0.51
m1 = 2.106 | 0.492
m1 = 2.152 | 0.491
m1 = 2.947 | 0.477
m1 = 3.008 | 0.476
m1 = 3.944 | 0.472
m1 = 4.002 | 0.471
